Assay results published in patent publication US8920832B2, “Composition for nucleic acid transfection” (Hokkaido System Science Co., Ltd., priority 2006, dated 2014).

How the values were obtained:
HeLa cells [1] = experiment: Cytotoxicity score under microscope after DNA transfection, HeLa cells; assay type: cell-based
Method: (§4) HeLa cells were inoculated into a 96-well plate (7,500 cells/100 μL/well), followed by culturing for about 24 hours. DNA (pCMV-SPORT-βgal) was diluted with a DMEM medium, to thereby prepare a DNA-diluted solution having a DNA concentration of 8 μg/mL (for the case of 200 ng/well). […] The thus-obtained solution or Lipofectamine 2000 as a positive control (product of Invitrogen) was diluted with a DMEM medium so that the amount of the reconstituted liposome solution or Lipofectamine 2000 added to cells was “Amount of liposomes added (μL/well)” shown in Table 9 or 10. Immediately after dilution, the DNA-diluted solution (25 μL) was added to and mixed with the liposome-diluted solution (25 μL), and the mixture was allowed to stand still at room temperature for 30 minutes, to thereby form a DNA/liposome complex. The DNA/liposome complex (50 μL) was added to the inoculated HeLa cells (about 70 to about 90% confluent), to thereby initiate transfection. After culturing at 37° C. and 5% CO2 for one hour, a 10% FBS/DMEM medium (100 μL) was added to the culture liquid, followed by culturing at 37° C. and 5% CO2 for about 21 hours.
(§5) Each of the enhancers shown in Table 13 was diluted with a DMEM medium to different concentrations so that the amount of the enhancer finally added to cells was “Enhancer amount (μg/well)” shown in Table 13. […] The thus-diluted liposome solution was added to an equiamount of the above-diluted enhancer, followed by incubation at room temperature for 20 minutes. […] Subsequently, cytotoxicity was evaluated according to the aforementioned scores, and determination of β-gal activity, quantitative determination of protein, and viable cell counting were carried out.

HeLa cells [2] = experiment: Viable cell counting (WST-1), cell survival rate, HeLa cells; assay type: cell-based; conditions: Formulation Example 4 0.38 μL/well
Method: (§1) Viable cell counting was carried out by means of a Cell Counting Kit (product of Dojindo Laboratories) based on WST-1 assay. […] Thereafter, absorbance was measured at 450 nm. A cell count vs. A450 standard curve was prepared on the basis of a separately prepared dilution series of different numbers of inoculated cells, and the number of viable cells was estimated by use of the standard curve.

HT1080 cells [3] = experiment: Viable cell counting (WST-1), cell survival rate, HT1080 cells; assay type: cell-based; conditions: Formulation Example 4 0.38 μL/well
Method: as §1
(§2) The procedure of Test Example 5 was repeated, except that HeLa cells were replaced with HT1080 cells.
(§3) The procedure of Test Example 7 was repeated, except that HeLa cells were replaced with HT1080 cells.

HT1080 cells [4] = experiment: DNA (pCMV-SPORT-βgal) transfection into HT1080 cells: β-gal activity; assay type: cell-based
Text: as §2, §3

HeLa cells [5] = experiment: DNA (pCMV-SPORT-βgal) transfection into HeLa cells: β-gal activity; conditions: for β-gal activity: HeLa; for effect of enhancer on nucleic-acid-transfecting performance and cytotoxicity, in words: enhancer added to liposome solution of Formulation Example 4, summary of Tables 13 and 14 (HeLa and HT1080)
Method: as §4
The culture supernatant was removed, and the cells were washed with PBS(−). Thereafter, determination of β-galactosidase (hereinafter may be abbreviated as “β-gal”) activity, quantitative determination of protein, and viable cell counting were carried out as described below.
After complete removal of PBS through suction, a lysis buffer (30 μL) was added to the cells, and the mixture was stirred and then allowed to stand still at −80° C. for 30 minutes or longer for freezing. After rapid thawing in a water bath at 37° C., the mixture was again allowed to stand still at −80° C. for 30 minutes or longer for freezing, followed by rapid thawing in a water bath at 37° C. Thereafter, centrifugation was carried out (2,000 g×10 minutes), and the resultant supernatant (sample) (10 μL) was added to a 96-well microplate.
Determination of β-gal activity was carried out by means of a β-gal assay kit (product of Invitrogen). […] A 2-Me-containing cleavage buffer was added (50 μL/well) to the sample or each of the standard-diluted solutions (10 μL), and 4 mg/mL aqueous ONPG solution was added (17 μL/well), followed by incubation at 37° C. for 30 minutes. After completion of incubation, a stop buffer was added (120 μL/well) for termination of reaction, and absorbance was measured at 405 nm.
as §5

HT1080 cells [6] = experiment: Cytotoxicity score under microscope after DNA transfection, HT1080 cells; assay type: cell-based; parameters: scale not given here
Text: as §2, §3

[7] = Formulation Example 4 0.38 μL/well, enhancer 2.5 μg/well
[8] = Formulation Example 4 0.38 μL/well, enhancer 5 μg/well
[9] = Formulation Example 4 0.38 μL/well, enhancer 10 μg/well
[10] = Formulation Example 4 0.38 μL/well, enhancer 20 μg/well
[11] = Formulation Example 4 0.38 μL/well, enhancer 40 μg/well
[12] = Formulation Example 4 0.38 μL/well, enhancer 0.625 μg/well
[13] = Formulation Example 4 0.38 μL/well, enhancer 1.25 μg/well
[14] = Formulation Example 4 0.75 μL/well, enhancer 0.625 μg/well
[15] = Formulation Example 4 0.75 μL/well, enhancer 1.25 μg/well
[16] = Formulation Example 4 0.75 μL/well, enhancer 2.5 μg/well
[17] = Formulation Example 4 0.75 μL/well, enhancer 5 μg/well
[18] = Formulation Example 4 0.75 μL/well, enhancer 10 μg/well
[19] = Formulation Example 4 0.38 μL/well, enhancer 6.25 μg/well
[20] = Formulation Example 4 0.38 μL/well, enhancer 12.5 μg/well
[21] = Formulation Example 4 0.38 μL/well, enhancer 25 μg/well
[22] = Formulation Example 4 0.38 μL/well, enhancer 50 μg/well
[23] = Formulation Example 4 0.38 μL/well, enhancer 100 μg/well
[24] = Formulation Example 4 0.75 μL/well, enhancer 6.25 μg/well
[25] = Formulation Example 4 0.75 μL/well, enhancer 12.5 μg/well
[26] = Formulation Example 4 0.75 μL/well, enhancer 25 μg/well
[27] = Formulation Example 4 0.75 μL/well, enhancer 50 μg/well
[28] = Formulation Example 4 0.75 μL/well, enhancer 100 μg/well
[29] = Formulation Example 4 0.38 μL/well, enhancer 0.00625 μg/well
[30] = Formulation Example 4 0.38 μL/well, enhancer 0.0125 μg/well
[31] = Formulation Example 4 0.38 μL/well, enhancer 0.025 μg/well
[32] = Formulation Example 4 0.38 μL/well, enhancer 0.05 μg/well
[33] = Formulation Example 4 0.38 μL/well, enhancer 0.1 μg/well
[34] = Formulation Example 4 0.75 μL/well, enhancer 0.00625 μg/well
[35] = Formulation Example 4 0.75 μL/well, enhancer 0.0125 μg/well
[36] = Formulation Example 4 0.75 μL/well, enhancer 0.025 μg/well
[37] = Formulation Example 4 0.75 μL/well, enhancer 0.05 μg/well
[38] = Formulation Example 4 0.75 μL/well, enhancer 0.1 μg/well

## CCCC(=O)[O-].[Na+] [sodium butyrate]
HeLa cells [1]; [7]
  Cytotoxicity score: 1.5
HeLa cells [1]; [8]
  Cytotoxicity score: 1.0
HeLa cells [1]; [9]
  Cytotoxicity score: 1.0
HeLa cells [1]; [10]
  Cytotoxicity score: 1.5
HeLa cells [1]; [11]
  Cytotoxicity score: 2.0
HeLa cells [2]; enhancer 2.5 μg/well
  Cell survival rate: 67%
HeLa cells [2]; enhancer 5 μg/well
  Cell survival rate: 73%
HeLa cells [2]; enhancer 10 μg/well
  Cell survival rate: 65%
HeLa cells [2]; enhancer 20 μg/well
  Cell survival rate: 66%
HeLa cells [2]; enhancer 40 μg/well
  Cell survival rate: 68%
HT1080 cells [3]; enhancer 2.5 μg/well
  Cell survival rate: 55%
HT1080 cells [3]; enhancer 5 μg/well
  Cell survival rate: 50%
HT1080 cells [3]; enhancer 10 μg/well
  Cell survival rate: 53%
HT1080 cells [3]; enhancer 20 μg/well
  Cell survival rate: 52%
HT1080 cells [3]; enhancer 40 μg/well
  Cell survival rate: 62%
HT1080 cells [4]; [7]
  β-gal activity: 45.0 mU/well
HT1080 cells [4]; [8]
  β-gal activity: 40.2 mU/well
HT1080 cells [4]; [9]
  β-gal activity: 37.3 mU/well
HT1080 cells [4]; [10]
  β-gal activity: 40.3 mU/well
HT1080 cells [4]; [11]
  β-gal activity: 45.6 mU/well
HeLa cells [5]; [7]
  β-gal activity: 20.4 mU/well
HeLa cells [5]; [8]
  β-gal activity: 19.8 mU/well
HeLa cells [5]; [9]
  β-gal activity: 18.7 mU/well
HeLa cells [5]; [10]
  β-gal activity: 20.9 mU/well
HeLa cells [5]; [11]
  β-gal activity: 26.7 mU/well
HeLa cells [5]
  effect of enhancer on nucleic-acid-transfecting performance and cytotoxicity, in words: excellent effects
HT1080 cells [6]; [7]
  Cytotoxicity score: 1.5
HT1080 cells [6]; [8]
  Cytotoxicity score: 1.5
HT1080 cells [6]; [9]
  Cytotoxicity score: 2.0
HT1080 cells [6]; [10]
  Cytotoxicity score: 2.5
HT1080 cells [6]; [11]
  Cytotoxicity score: 3.0

## protamine
HeLa cells [1]; [12]
  Cytotoxicity score: 1.5
HeLa cells [1]; [13]
  Cytotoxicity score: 0.5
HeLa cells [1]; [7]
  Cytotoxicity score: 0.5
HeLa cells [1]; [8]
  Cytotoxicity score: 0.5
HeLa cells [1]; [9]
  Cytotoxicity score: 0.5
HeLa cells [1]; [14]
  Cytotoxicity score: 3.0
HeLa cells [1]; [15]
  Cytotoxicity score: 1.0
HeLa cells [1]; [16]
  Cytotoxicity score: 0.5
HeLa cells [1]; [17]
  Cytotoxicity score: 0.5
HeLa cells [1]; [18]
  Cytotoxicity score: 0.5
HT1080 cells [4]; [12]
  β-gal activity: 79.3 mU/well
HT1080 cells [4]; [13]
  β-gal activity: 61.5 mU/well
HT1080 cells [4]; [7]
  β-gal activity: 23.1 mU/well
HT1080 cells [4]; [8]
  β-gal activity: 4.1 mU/well
HT1080 cells [4]; [9]
  β-gal activity: 2.7 mU/well
HT1080 cells [4]; [14]
  β-gal activity: 103.9 mU/well
HT1080 cells [4]; [15]
  β-gal activity: 103.9 mU/well
HT1080 cells [4]; [16]
  β-gal activity: 49.8 mU/well
HT1080 cells [4]; [17]
  β-gal activity: 19.5 mU/well
HT1080 cells [4]; [18]
  β-gal activity: 15.1 mU/well
HeLa cells [5]; [12]
  β-gal activity: 30.4 mU/well
HeLa cells [5]; [13]
  β-gal activity: 9.8 mU/well
HeLa cells [5]; [7]
  β-gal activity: 4.8 mU/well
HeLa cells [5]; [8]
  β-gal activity: 0.9 mU/well
HeLa cells [5]; [9]
  β-gal activity: 0.1 mU/well
HeLa cells [5]; [14]
  β-gal activity: 46.2 mU/well
HeLa cells [5]; [15]
  β-gal activity: 26.3 mU/well
HeLa cells [5]; [16]
  β-gal activity: 10.1 mU/well
HeLa cells [5]; [17]
  β-gal activity: 3.1 mU/well
HeLa cells [5]; [18]
  β-gal activity: 0.5 mU/well
HeLa cells [5]
  effect of enhancer on nucleic-acid-transfecting performance and cytotoxicity, in words: excellent effects
HT1080 cells [6]; [12]
  Cytotoxicity score: 1.5
HT1080 cells [6]; [13]
  Cytotoxicity score: 1.5
HT1080 cells [6]; [7]
  Cytotoxicity score: 1.0
HT1080 cells [6]; [8]
  Cytotoxicity score: 0.5
HT1080 cells [6]; [9]
  Cytotoxicity score: 0.5
HT1080 cells [6]; [14]
  Cytotoxicity score: 2.5
HT1080 cells [6]; [15]
  Cytotoxicity score: 2.0
HT1080 cells [6]; [16]
  Cytotoxicity score: 2.0
HT1080 cells [6]; [17]
  Cytotoxicity score: 2.0
HT1080 cells [6]; [18]
  Cytotoxicity score: 1.0

## NCCCNCCCCNCCCN [Spermine]
HeLa cells [1]; [19]
  Cytotoxicity score: 0.0
HeLa cells [1]; [20]
  Cytotoxicity score: 0.0
HeLa cells [1]; [21]
  Cytotoxicity score: 0.0
HeLa cells [1]; [22]
  Cytotoxicity score: 2.0
HeLa cells [1]; [23]
  Cytotoxicity score: 2.0
HeLa cells [1]; [24]
  Cytotoxicity score: 4.0
HeLa cells [1]; [25]
  Cytotoxicity score: 4.0
HeLa cells [1]; [26]
  Cytotoxicity score: 4.0
HeLa cells [1]; [27]
  Cytotoxicity score: 4.0
HeLa cells [1]; [28]
  Cytotoxicity score: 2.0
HT1080 cells [4]; [19]
  β-gal activity: 31.1 mU/well
HT1080 cells [4]; [20]
  β-gal activity: 29.1 mU/well
HT1080 cells [4]; [21]
  β-gal activity: 34.9 mU/well
HT1080 cells [4]; [22]
  β-gal activity: 21.5 mU/well
HT1080 cells [4]; [23]
  β-gal activity: 6.8 mU/well
HT1080 cells [4]; [24]
  β-gal activity: 76.5 mU/well
HT1080 cells [4]; [25]
  β-gal activity: 64.6 mU/well
HT1080 cells [4]; [26]
  β-gal activity: 72.9 mU/well
HT1080 cells [4]; [27]
  β-gal activity: 10.9 mU/well
HT1080 cells [4]; [28]
  β-gal activity: 1.3 mU/well
HeLa cells [5]; [19]
  β-gal activity: 0.8 mU/well
HeLa cells [5]; [20]
  β-gal activity: 1.0 mU/well
HeLa cells [5]; [21]
  β-gal activity: 0.2 mU/well
HeLa cells [5]; [22]
  β-gal activity: 0.2 mU/well
HeLa cells [5]; [23]
  β-gal activity: 0.1 mU/well
HeLa cells [5]; [24]
  β-gal activity: 1.8 mU/well
HeLa cells [5]; [25]
  β-gal activity: 0.1 mU/well
HeLa cells [5]; [26]
  β-gal activity: 0.0 mU/well
HeLa cells [5]; [27]
  β-gal activity: 0.1 mU/well
HeLa cells [5]; [28]
  β-gal activity: 0.3 mU/well
HT1080 cells [6]; [19]
  Cytotoxicity score: 2.5
HT1080 cells [6]; [20]
  Cytotoxicity score: 2.0
HT1080 cells [6]; [21]
  Cytotoxicity score: 2.5
HT1080 cells [6]; [22]
  Cytotoxicity score: 2.0
HT1080 cells [6]; [23]
  Cytotoxicity score: 1.0
HT1080 cells [6]; [24]
  Cytotoxicity score: 2.0
HT1080 cells [6]; [25]
  Cytotoxicity score: 2.5
HT1080 cells [6]; [26]
  Cytotoxicity score: 3.0
HT1080 cells [6]; [27]
  Cytotoxicity score: 2.0
HT1080 cells [6]; [28]
  Cytotoxicity score: 2.0

## pronectin
HeLa cells [1]; [29]
  Cytotoxicity score: 2.0
HeLa cells [1]; [30]
  Cytotoxicity score: 2.0
HeLa cells [1]; [31]
  Cytotoxicity score: 2.0
HeLa cells [1]; [32]
  Cytotoxicity score: 1.5
HeLa cells [1]; [33]
  Cytotoxicity score: 2.0
HeLa cells [1]; [34]
  Cytotoxicity score: 4.0
HeLa cells [1]; [35]
  Cytotoxicity score: 3.5
HeLa cells [1]; [36]
  Cytotoxicity score: 3.5
HeLa cells [1]; [37]
  Cytotoxicity score: 3.0
HeLa cells [1]; [38]
  Cytotoxicity score: 3.0
HT1080 cells [4]; [29]
  β-gal activity: 87.2 mU/well
HT1080 cells [4]; [30]
  β-gal activity: 70.2 mU/well
HT1080 cells [4]; [31]
  β-gal activity: 52.0 mU/well
HT1080 cells [4]; [32]
  β-gal activity: 3.3 mU/well
HT1080 cells [4]; [33]
  β-gal activity: 0.3 mU/well
HT1080 cells [4]; [34]
  β-gal activity: 102.6 mU/well
HT1080 cells [4]; [35]
  β-gal activity: 107.3 mU/well
HT1080 cells [4]; [36]
  β-gal activity: 92.1 mU/well
HT1080 cells [4]; [37]
  β-gal activity: 16.0 mU/well
HT1080 cells [4]; [38]
  β-gal activity: 4.4 mU/well
HeLa cells [5]; [29]
  β-gal activity: 23.3 mU/well
HeLa cells [5]; [30]
  β-gal activity: 19.4 mU/well
HeLa cells [5]; [31]
  β-gal activity: 15.5 mU/well
HeLa cells [5]; [32]
  β-gal activity: 3.2 mU/well
HeLa cells [5]; [33]
  β-gal activity: 0.8 mU/well
HeLa cells [5]; [34]
  β-gal activity: 28.7 mU/well
HeLa cells [5]; [35]
  β-gal activity: 25.1 mU/well
HeLa cells [5]; [36]
  β-gal activity: 16.2 mU/well
HeLa cells [5]; [37]
  β-gal activity: 6.2 mU/well
HeLa cells [5]; [38]
  β-gal activity: 2.3 mU/well
HeLa cells [5]
  effect of enhancer on nucleic-acid-transfecting performance and cytotoxicity, in words: excellent effects
HT1080 cells [6]; [29]
  Cytotoxicity score: 1.5
HT1080 cells [6]; [30]
  Cytotoxicity score: 1.0
HT1080 cells [6]; [31]
  Cytotoxicity score: 0.5
HT1080 cells [6]; [32]
  Cytotoxicity score: 1.0
HT1080 cells [6]; [33]
  Cytotoxicity score: 1.0
HT1080 cells [6]; [34]
  Cytotoxicity score: 3.0
HT1080 cells [6]; [35]
  Cytotoxicity score: 3.0
HT1080 cells [6]; [36]
  Cytotoxicity score: 2.5
HT1080 cells [6]; [37]
  Cytotoxicity score: 2.5
HT1080 cells [6]; [38]
  Cytotoxicity score: 2.0
